# Measured values from patent US20240374595A1, “SUBSTITUTED 1,1'-BIPHENYL COMPOUNDS, ANALOGUES THEREOF, AND METHODS USING SAME” (Arbutus Biopharma Corporation, priority 2018, published 2024).
# Target: PD-L1 (Homo sapiens (Human), UniProt Q9NZQ7)
# Experiment: PD-L1 HTRF assay (PD-1/PD-L1 interaction)
# Type: binding
# Details: PD-L1 His 6 nM, PD-1 Fc 6 nM; inhibitors 3-fold diluted from 20 μM
# Experimental: PD-L1 small molecule inhibitors were diluted by 3-fold starting from 20 μM and a final concentration of 0.001 μM and added to the well. PD-1 Fc protein was added at the final concentration of 6 nM. PD-L1 His protein, PD-L1 small molecule inhibitors, and PD1 Fc proteins were added to the well in this order, with each 5 μl volume, and were incubated for 15 minutes at room temperature. […] The plate was read using PerkinElmer Envision plate reader and data was analyzed by Prism 6 software.
# Sequence of PD-L1 (Q9NZQ7 19-238): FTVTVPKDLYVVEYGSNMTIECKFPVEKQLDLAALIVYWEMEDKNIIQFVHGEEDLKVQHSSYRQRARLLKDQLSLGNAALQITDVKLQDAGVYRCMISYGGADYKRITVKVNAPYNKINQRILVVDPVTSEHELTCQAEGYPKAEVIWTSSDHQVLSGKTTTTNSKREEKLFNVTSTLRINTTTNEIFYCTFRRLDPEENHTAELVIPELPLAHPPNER
row,Structure (SMILES),IC50 [nM]
1,"COc1cc(OCc2cccc(-c3cccc(COc4cc(OC)c(CN5CCCC[C@H]5C(=O)O)cc4Cl)c3C)c2C)c(Cl)cc1CO [Example 30, (2S)-1-[[5-chloro-4-[[3-[3-[[2-chloro-4-(hydroxymethyl)-5-methoxy-phenoxy]methyl]-2-methyl-phenyl]-2-methyl-phenyl]methoxy]-2-methoxy-phenyl]methyl]piperidine-2-carboxylic acid]",4
2,"Cc1c(NC(=O)c2ccc(CNCCO)cn2)cccc1-c1cccc(NC(=O)c2ccc(CNCCO)cn2)c1C [Example 34, 5-[(2-Hydroxyethylamino)methyl]-N-[3-[3-[[5-[(2-hydroxyethylamino)methyl]pyridine-2-carbonyl]amino]-2-methyl-phenyl]-2-methyl-phenyl]pyridine-2-carboxamide]",1
3,"Cc1c(COc2cc(OCc3cncc(C#N)c3)c(C3=NCC(O)CN3)cc2Cl)cccc1-c1cccc(OCCCN2CCC(O)CC2)c1C (stereo not shown) [Example 16, 5-[[4-Chloro-5-[[3-[3-[3-(4-hydroxy-1-piperidyl)propoxy]-2-methyl-phenyl]-2-methyl-phenyl]methoxy]-2-(5-hydroxy-1,4,5,6-tetrahydropyrimidin-2-yl)phenoxy]methyl]pyridine-3-carbonitrile]",1.2
4,"Cc1c(COc2cc(OCc3cncc(C#N)c3)c(C3=NCCN3CCO)cc2Cl)cccc1-c1cccc(OCCCN2CCC(O)CC2)c1C [Example 22, 5-[[4-Chloro-2-[1-(2-hydroxyethyl)-4,5-dihydroimidazol-2-yl]-5-[[3-[3-[3-(4-hydroxy-1-piperidyl)propoxy]-2-methyl-phenyl]-2-methyl-phenyl]methoxy]phenoxy]methyl]pyridine-3-carbonitrile]",3.8
5,"Cc1c(COc2ccc(C3=NCCN3CCO)c(OCc3cccc(C#N)c3)c2)cccc1-c1ccccc1 [Example 6, 3-[[2-[1-(2-Hydroxyethyl)-4,5-dihydroimidazol-2-yl]-5-[(2-methyl-3-phenyl-phenyl)methoxy]phenoxy]methyl]benzonitrile]",53
6,"Cc1c(COc2ccc(C3=NCC(O)CN3)c(OCc3cccc(C#N)c3)c2)cccc1-c1ccccc1 (stereo not shown) [Example 10, 3-[[2-(5-Hydroxy-1,4,5,6-tetrahydropyrimidin-2-yl)-5-[(2-methyl-3-phenyl-phenyl)methoxy]phenoxy]methyl]benzonitrile]",100
7,"Cc1c(COc2cc(OCc3cncc(C#N)c3)c(C3=NCC(O)CN3)cc2Cl)cccc1-c1cccc(OCC(CN2CCC(O)CC2)c2ccccc2)c1C (stereo not shown) [Example 25, 5-[[4-chloro-5-[[3-[3-[3-(4-hydroxy-1-piperidyl)-2-phenyl-propoxy]-2-methyl-phenyl]-2-methyl-phenyl]methoxy]-2-(5-hydroxy-1,4,5,6-tetrahydropyrimidin-2-yl)phenoxy]methyl]pyridine-3-carbonitrile]",30
8,"Cc1c(COc2ccc(/C(=N/CCO)NCCO)c(OCc3cccc(C#N)c3)c2)cccc1-c1ccccc1 [Example 13, 2-[(3-Cyanophenyl)methoxy]-N,N′-bis(2-hydroxyethyl)-4-[(2-methyl-3-phenyl-phenyl)methoxy]benzamidine]",170
9,"Cc1c(COc2cc(OCc3cncc(C#N)c3)c(C3=NCC(O)CN3)cc2Cl)cccc1-c1cccc(COc2cc(OCc3cncc(C#N)c3)c(C3=NCC(O)CN3)cc2Cl)c1C (stereo not shown) [Example 28, 5-[[4-chloro-5-[[3-[3-[[2-Chloro-5-[(5-cyano-3-pyridyl)methoxy]-4-(5-hydroxy-1,4,5,6-tetrahydropyrimidin-2-yl)phenoxy]methyl]-2-methyl-phenyl]-2-methyl-phenyl]methoxy]-2-(5-hydroxy-1,4,5,6-tetrahydropyrimidin-2-yl)phenoxy]methyl]pyridine-3-carbonitrile]",6.7
10,"Cc1c(NC(=O)c2ccc(CNCCO)cn2)cccc1-c1cccc(NC(=O)c2ccc(CN3CC[C@@H](O)C3)cn2)c1C [Example 37, (R)-5-(((2-hydroxyethyl)amino)methyl)-N-(3′-(5-((3-hydroxypyrrolidin-1-yl)methyl)picolinamido)-2,2′-dimethyl-[1,1′-biphenyl]-3-yl)picolinamide]",0.8
